Tested on: isolation-reared male ddy mice
Assay: Aggressive behavior of isolation-reared (sociopsychological stress) mice
Format: in vivo
Conditions: six weeks after initiation of isolation-rearing, two mice in same cage for 20 minutes, vs solvent
Description: Conceivably, this phenomenon is attributed to the fact that rearing of experimental animals under conditions where social environmental change or social stimuli are absent imposes a kind of sociopsychological stress on the animals (“Mechanism of Sleep,” pp. 52-73 “Stress and Sleep,” Asakura Publishing Co., Ltd. (1997)). In Example 1, anti-stress effects of uridine and GABA (i.e., control) were evaluated through use of this phenomenon. Specifically, isolation-rearing of male ddy mice was initiated at four weeks old, to thereby impose sociopsychological stress (stress caused by isolation-rearing) on the mice. Thus, animal models for evaluation were prepared.
On the basis of this report, the following evaluation was carried out. Specifically, six weeks after initiation of isolation-rearing, two mice were placed in the same cage for 20 minutes, and the time during which aggressive behavior was observed was measured. The effect of uridine or GABA on prolongation of aggressive behavior was evaluated.
A test compound was suspended or dissolved in 0.5% aqueous carboxymethylcellulose solution, and the resultant suspension or solution was orally administered once a day, six days a week, until the end of the experiment.
Mice were divided into four groups. Mice of one group were group-reared and received a solvent. Mice of the other three groups were isolation-reared and received a solvent (100 mg/kg/day), uridine (100 mg/kg/day), and GABA (100 mg/kg/day), respectively. Observation of aggressive behavior was carried out in […] of mice in each group (n=9).
The experiment of Example 1 was repeated, except that the dose of uridine was changed to 10 mg/kg/day, and uridylic acid was administered in place of GABA at a dose of 1 g/kg/day.

[1] = 100 mg/kg/day oral, once a day six days a week

Row | SMILES | time during which aggressive behavior was observed [1] | time during which aggressive behavior was observed (10 mg/kg/day oral (low-dose)) | time during which aggressive behavior was observed (1 g/kg/day oral)
1 | NCCCC(=O)O [GABA, γ-aminobutyric acid, reference compound] | significantly reduced | – | –
2 | O=c1ccn([C@@H]2O[C@H](CO)[C@@H](O)[C@H]2O)c(=O)[nH]1 [uridine] | significantly reduced | significantly reduced | –
3 | O=c1ccn([C@@H]2O[C@H](COP(=O)(O)O)[C@@H](O)[C@H]2O)c(=O)[nH]1 [uridylic acid] | – | – | significantly reduced

Source: patent US8017594B2, “Agent against psychosocial stresses” (Yamasa Corporation, priority 2006, dated 2011)
